Experimental data reported in patent US20070161546A1, “Methods and compositions for treatment of cancer” (priority 2005, published 2007).

What was measured:
[1] = tested on: human monocyte-derived macrophages (MDMs); conditions: p38 MAPK inhibitor added to Z-100; cited from earlier work
[2] = tested on: Ehrlich ascites tumor cell; conditions: mice, 14 days after inoculation with cancer cells
Text: The injection is repeated over a period of several days. Fourteen days later after the initial inoculation with cancer cells, each of the treated mice are anesthetized.
The solid tumor growing in the abdominal section is carefully isolated from other organ tissues, cleaned using filter papers and weighed. For the test and the control group, the average weight of the cancerous tissue was tabulated and evaluated by the t-test.

## C[S+]([O-])c1ccc(-c2nc(-c3ccncc3)c(-c3ccc(F)cc3)[nH]2)cc1 (centres unmarked) [SB 203580]
[1]
  effect on Z-100-induced effects (repression of HIV-1 replication): alleviated

## O=P1(N(CCCl)CCCl)NCCCO1 (centres unmarked) [cyclophosphamide, Cyclophosphamide]
[2]
  anticancer effect (average weight of the cancerous tissue), agent alone: anticancer effects of similar magnitude
